Earlier results as cited in patent publication US20080261897A1, “Formulation Containing a Polyphenol-Containing Composition and Isomaltulose” (priority 2005, published 2008).

## O=C(CO)[C@@H](O)[C@H](O)[C@H](O)CO[C@H]1O[C@H](CO)[C@@H](O)[C@H](O)[C@H]1O [isomaltulose, 6-O-α-D-glucopyranosylfructose]
  solubility of isomaltulose in water: 0.49 g of anhydrous isomaltulose per g of water
